Source: PubChem BioAssay (NCI)
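Following 48 hours of exposure in 96-well plates, responses at five concentrations were used to interpolate endpoints linearly. GI50 = concentration required for 50% inhibition of growth. The concentration for full growth arrest is given as TGI.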

Columns and labels:
Test in all cases: growth of human tumour cells (NCI), 48 h
PC-3 prostate = tested on: PC-3 prostate
HS 578T breast = tested on: HS 578T breast
K-562 leukemia = tested on: K-562 leukemia
M14 melanoma = tested on: M14 melanoma
UACC-62 melanoma = tested on: UACC-62 melanoma
NCI-H226 lung = tested on: NCI-H226 lung
MDA-MB-435 = tested on: MDA-MB-435
T-47D breast = tested on: T-47D breast
U251 CNS = tested on: U251 CNS
NCI-H23 lung = tested on: NCI-H23 lung
SF-268 CNS = tested on: SF-268 CNS
BT-549 breast = tested on: BT-549 breast
SF-295 CNS = tested on: SF-295 CNS
HCC-2998 colon = tested on: HCC-2998 colon
MOLT-4 leukemia = tested on: MOLT-4 leukemia
HT29 colon = tested on: HT29 colon
OVCAR-5 ovarian = tested on: OVCAR-5 ovarian
A498 renal = tested on: A498 renal
TK-10 renal = tested on: TK-10 renal
OVCAR-8 ovarian = tested on: OVCAR-8 ovarian
CCRF-CEM leukemia = tested on: CCRF-CEM leukemia
SNB-75 CNS = tested on: SNB-75 CNS
SK-MEL-28 melanoma = tested on: SK-MEL-28 melanoma
DU-145 prostate = tested on: DU-145 prostate
RPMI-8226 leukemia = tested on: RPMI-8226 leukemia
SK-MEL-2 melanoma = tested on: SK-MEL-2 melanoma
SW-620 colon = tested on: SW-620 colon
HCT-15 colon = tested on: HCT-15 colon
SF-539 CNS = tested on: SF-539 CNS

Q: For `N#Cc1c(-c2ccc(Cl)cc2)nc2n[nH]c(-c3ccc(Cl)cc3)c2c1-c1ccc(C(F)(F)F)cc1`, which GI50 (PC-3 prostate) is on record?
A: 2.25 µM

Q: What about the TGI (PC-3 prostate) of the same molecule?
A: 9.31 µM

Q: What about the GI50 (HS 578T breast) of the same molecule?
A: 2.23 µM

Q: And the TGI (HS 578T breast)?
A: 7.18 µM

Q: What about the GI50 (K-562 leukemia) of the same molecule?
A: 2.09 µM

Q: And the TGI (K-562 leukemia)?
A: 5.91 µM

Q: What about the GI50 (M14 melanoma) of the same molecule?
A: 2.17 µM

Q: And the TGI (M14 melanoma)?
A: 5.53 µM

Q: What about the GI50 (UACC-62 melanoma) of the same molecule?
A: 1.87 µM

Q: And the TGI (UACC-62 melanoma)?
A: 5.57 µM

Q: And the GI50 (NCI-H226 lung)?
A: 2.37 µM

Q: And the TGI (NCI-H226 lung)?
A: 8.97 µM

Q: And the GI50 (MDA-MB-435)?
A: 2.1 µM

Q: And the TGI (MDA-MB-435)?
A: 4.86 µM

Q: And the GI50 (T-47D breast)?
A: 2.53 µM

Q: What about the TGI (T-47D breast) of the same molecule?
A: 8.38 µM

Q: And the GI50 (U251 CNS)?
A: 3.03 µM

Q: And the TGI (U251 CNS)?
A: 11.2 µM

Q: What about the GI50 (NCI-H23 lung) of the same molecule?
A: 2.24 µM

Q: And the TGI (NCI-H23 lung)?
A: 7.68 µM

Q: And the GI50 (SF-268 CNS)?
A: 2.92 µM

Q: And the TGI (SF-268 CNS)?
A: 11.5 µM

Q: What about the GI50 (BT-549 breast) of the same molecule?
A: 2.17 µM

Q: What about the TGI (BT-549 breast) of the same molecule?
A: 4.78 µM

Q: And the GI50 (SF-295 CNS)?
A: 2.62 µM

Q: And the TGI (SF-295 CNS)?
A: 8.3 µM

Q: And the GI50 (HCC-2998 colon)?
A: 2.29 µM

Q: And the TGI (HCC-2998 colon)?
A: 5.36 µM

Q: What about the GI50 (MOLT-4 leukemia) of the same molecule?
A: 1.72 µM

Q: And the TGI (MOLT-4 leukemia)?
A: 6.12 µM

Q: And the GI50 (HT29 colon)?
A: 2.77 µM

Q: What about the TGI (HT29 colon) of the same molecule?
A: 10.9 µM

Q: What about the GI50 (OVCAR-5 ovarian) of the same molecule?
A: 2.16 µM

Q: And the TGI (OVCAR-5 ovarian)?
A: 5.22 µM

Q: What about the GI50 (A498 renal) of the same molecule?
A: 3.1 µM

Q: And the TGI (A498 renal)?
A: 8.71 µM

Q: And the GI50 (TK-10 renal)?
A: 3.99 µM

Q: What about the TGI (TK-10 renal) of the same molecule?
A: 15.6 µM

Q: What about the GI50 (OVCAR-8 ovarian) of the same molecule?
A: 3.23 µM

Q: What about the TGI (OVCAR-8 ovarian) of the same molecule?
A: 12.5 µM

Q: What about the GI50 (CCRF-CEM leukemia) of the same molecule?
A: 2.18 µM

Q: And the TGI (CCRF-CEM leukemia)?
A: 6.57 µM

Q: What about the GI50 (SNB-75 CNS) of the same molecule?
A: 1.75 µM

Q: What about the TGI (SNB-75 CNS) of the same molecule?
A: 6.59 µM

Q: And the GI50 (SK-MEL-28 melanoma)?
A: 2.68 µM

Q: And the TGI (SK-MEL-28 melanoma)?
A: 8.7 µM

Q: And the GI50 (DU-145 prostate)?
A: 3.6 µM

Q: And the TGI (DU-145 prostate)?
A: 15.9 µM

Q: What about the GI50 (RPMI-8226 leukemia) of the same molecule?
A: 1.93 µM

Q: And the TGI (RPMI-8226 leukemia)?
A: 6.27 µM

Q: What about the GI50 (SK-MEL-2 melanoma) of the same molecule?
A: 1.72 µM

Q: And the TGI (SK-MEL-2 melanoma)?
A: 3.26 µM

Q: What about the GI50 (SW-620 colon) of the same molecule?
A: 2.76 µM

Q: What about the TGI (SW-620 colon) of the same molecule?
A: 10.8 µM

Q: And the GI50 (HCT-15 colon)?
A: 2.57 µM

Q: What about the TGI (HCT-15 colon) of the same molecule?
A: 10.4 µM

Q: What about the GI50 (SF-539 CNS) of the same molecule?
A: 1.85 µM
